According to US10519106B2, “Urea derivative and use therefor” (Toray Industries, Inc., priority 2015, dated 2019):
Structures can show the parent of a compound that is named as a salt.

molecular target: T1, intracellular domain of DDR1 (Homo sapiens, UniProt Q08345); test: Evaluation of DDR1 inhibition activity with HTRF KinEASE-TK kit; assay type: biochemical; conditions: intracellular domain of DDR1 5 ng/μL, ATP 25 mol/L (so in the source), TK Substrate-biotin 1000 nmol/L, room temperature, one hour
T1 construct: the intracellular domain of DDR1 (in a final concentration of 5 ng/μL) (Carna Biosciences, Inc.); purchased Carna Biosciences, Inc
Method: The DDR1 inhibition activity of the compounds of Examples 1 to 51 was evaluated with HTRF® KinEASE-TK kit (Cisbio Bioassays).
Each test substance was dissolved in dimethyl sulfoxide (hereinafter referred to as DMSO) and then used for the evaluation as described below. Moreover, each of test substances and reagents was diluted in the kinase buffer (Cisbio Bioassays) prepared by adding thereto MgCl2, MnCl2, DTT, and the Supplemental Enzyme buffer (Cisbio Bioassays) to concentrations of 5 mmol/L, 0.5 mmol/L, 0.25 mmol/L, and 50 nmol/L, respectively, and then used. Each test substance (in DMSO in a final concentration of 1%), the intracellular domain of DDR1 (in a final concentration of 5 ng/μL) (Carna Biosciences, Inc.), the phosphate donor ATP (in final concentration of 25 mol/L) (Sigma), and the substrate TK Substrate-biotin (in a final concentration of 1000 nmol/L) (Cisbio Bioassays) were added to a 384-well black plate (Corning) and allowed to react at room temperature for one hour. After completion of the reaction, the TK Antibody-Cryptate (Cisbio Bioassays) and the Streptavidin-XL665 (Cisbio Bioassays) were added thereto and allowed to react at room temperature for one hour. In addition, the plate was provided with a well to which a test substance was not added, and with a well to which the intracellular domain of DDR1 and a test substance were not added.
The fluorescence intensity in each well was measured using a multi-label counter (Envision, PerkinElmer; excitation wavelength: 320 nm, measurement wavelength: 665 nm and 620 nm) to calculate a Ratio (the fluorescence intensity at 665 nm/the fluorescence intensity at 620 nm). The inhibition rate (%) of a test substance at each concentration was calculated based on the formula below. Inhibition rate (%)=([the Ratio obtained from the well containing no test substance]−[the Ratio from a well containing a test substance])/([the Ratio obtained from the well containing no test substance]−[the Ratio obtained from the well containing no intracellular domain of DDR1 and no test substance])×100
The calculated inhibition rates were fitted to a sigmoidal dose-response curve by regression analysis using the Prism 5.04 (GraphPad Software, Inc.) to calculate the ICso0 value of the test substance.

T1 sequence (Q08345 444-876 isoform Q08345-2 limits assumed): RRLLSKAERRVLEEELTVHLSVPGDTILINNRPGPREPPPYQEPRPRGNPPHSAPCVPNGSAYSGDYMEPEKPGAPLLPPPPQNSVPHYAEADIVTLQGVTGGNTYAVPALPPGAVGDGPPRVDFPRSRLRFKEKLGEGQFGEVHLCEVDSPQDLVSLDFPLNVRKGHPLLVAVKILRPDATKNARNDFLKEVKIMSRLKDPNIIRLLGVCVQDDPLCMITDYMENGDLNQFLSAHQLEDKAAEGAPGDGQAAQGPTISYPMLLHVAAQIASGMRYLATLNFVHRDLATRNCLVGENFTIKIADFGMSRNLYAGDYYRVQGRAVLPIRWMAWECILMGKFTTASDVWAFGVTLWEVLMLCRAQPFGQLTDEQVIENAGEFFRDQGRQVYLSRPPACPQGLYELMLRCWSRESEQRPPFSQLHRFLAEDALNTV

SMILES	IC50
COc1ccc(S(F)(F)(F)(F)F)cc1NC(=O)NCc1ccccc1OCc1ccncc1 [Compound of Example 1]	52.1 nM
COc1ccc(OC(F)(F)F)cc1NC(=O)NCc1ccccc1OCc1ccncc1 [Compound of Example 4]	51.7 nM
COc1ccc(C(F)(F)F)cc1NC(=O)NCc1cccc(OCc2cccnc2)c1 [Compound of Example 6]	32.5 nM
COc1ccc(OC(F)(F)F)cc1NC(=O)NCc1ccccc1OCc1ccc(C(=O)O)cc1 [Compound of Example 8, 4-((2-((3-(2-methoxy-5-(trifluoromethoxy)phenyl)ureido)methyl)phenoxy)methyl)benzoic acid]	172 nM
COc1ccc(OC(F)(F)F)cc1NC(=O)NCc1ccccc1OCc1cccc(C(=O)O)c1 [Compound of Example 9, 3-((2-((3-(2-methoxy-5-(trifluoromethoxy)phenyl)ureido)methyl)phenoxy)methyl)benzoic acid]	137 nM
COc1c(CO)cc(C(F)(F)F)cc1NC(=O)NCc1ccccc1OCc1ccc(C(=O)O)cc1 [Compound of Example 11, 4-((2-((3-(3-(hydroxymethyl)-2-methoxy-5-(trifluoromethyl)phenyl)ureido)methyl)phenoxy)methyl)benzoic acid]	150 nM
COc1ccc(OC(F)(F)F)cc1NC(=O)NCc1ccccc1OCc1ccc(C(N)=O)cc1 [Compound of Example 12, 4-((2-((3-(2-methoxy-5-(trifluoromethoxy)phenyl)ureido)methyl)phenoxy)methyl)benzamide]	38.6 nM
CCN(CC)CCNC(=O)c1ccc(COc2ccccc2CNC(=O)Nc2cc(OC(F)(F)F)ccc2OC)cc1 [Compound of Example 15, N-(2-(diethylamino)ethyl)-4-((2-((3-(2-methoxy-5-(trifluoromethoxy)phenyl)ureido)methyl)phenoxy)methyl)benzamide]	308 nM
COc1ccc(C(F)(F)F)cc1NC(=O)NCc1ccccc1OCc1ccc(C(N)=O)cc1 [Compound of Example 18, 4-((2-((3-(2-methoxy-5-(trifluoromethyl)phenyl)ureido)methyl)phenoxy)methyl)benzamide]	23.3 nM
NC(=O)c1ccc(COc2ccccc2CNC(=O)Nc2cccc(C(F)(F)F)c2)cc1 [Compound of Example 19, 4-((2-((3-(3-(trifluoromethyl)phenyl)ureido)methyl)phenoxy)methyl)benzamide]	37.4 nM
COc1ccc(S(F)(F)(F)(F)F)cc1NC(=O)NCc1ccccc1Oc1ccnc(-n2ccnc2)n1 [Compound of Example 24, 1-(2-((2-(1H-imidazol-1-yl)pyrimidin-4-yl)oxy)benzyl)-3-(2-methoxy-5-(pentafluorosulfanyl)phenyl)urea]	42.2 nM
COc1c(CO)cc(C(F)(F)F)cc1NC(=O)NCc1ccccc1Oc1ccc(C(=O)O)cc1 [Compound of Example 28]	14.5 nM
COc1ccc(C(F)(F)F)cc1NC(=O)NCc1ccccc1Oc1ccc(C(=O)O)cc1 [Compound of Example 30]	12.4 nM
NC(=O)c1ccc(Oc2ccccc2CNC(=O)Nc2cccc(C(F)(F)F)c2)cc1 [Compound of Example 32]	17.3 nM
NC(=O)c1ccc(Oc2ccccc2CNC(=O)Nc2cc(OC(F)(F)F)ccc2OC2COC2)cc1 [Compound of Example 34, 4-(2-((3-(2-(oxetan-3-yloxy)-5-(trifluoromethoxy)phenyl)ureido)methyl)phenoxy)benzamide]	22 nM
NC(=O)c1ccc(Oc2ccccc2CNC(=O)Nc2cc(CO)cc(C(F)(F)F)c2)cc1 [Compound of Example 35]	12.9 nM

Further molecules by falling IC50, results first:

IC50	SMILES
838 nM	COc1ccc(OC(F)(F)F)cc1NC(=O)NCc1ccccc1OCc1cccnc1 [Compound of Example 3]
585 nM	COC(=O)c1ccc(COc2ccccc2CNC(=O)Nc2cc(OC(F)(F)F)ccc2OC)cc1 [Compound of Example 7, methyl 4-((2-((3-(2-methoxy-5-(trifluoromethoxy)phenyl)ureido)methyl)phenoxy)methyl)benzoate]
194 nM	COC(=O)c1ccc(Oc2ccccc2CNC(=O)Nc2cc(OC(F)(F)F)ccc2OC)cc1 [Compound of Example 25]
185 nM	CNCCNC(=O)c1ccc(COc2ccccc2CNC(=O)Nc2cc(OC(F)(F)F)ccc2OC)cc1 [Compound of Example 17, 4-((2-((3-(2-methoxy-5-(trifluoromethoxy)phenyl)ureido)methyl)phenoxy)methyl)-N-(2-(methylamino)ethyl)benzamide]
163 nM	COc1ccc(OC(F)(F)F)cc1NC(=O)NCc1ccccc1OCc1ccc(C(=O)NCCN(C)C)cc1 [Compound of Example 16, N-(2-(dimethylamino)ethyl)-4-((2-((3-(2-methoxy-5-(trifluoromethoxy)phenyl)ureido)methyl)phenoxy)methyl)benzamide]
156 nM	COC(=O)c1ccc(COc2ccccc2CNC(=O)Nc2cc(C(F)(F)F)cc(CO)c2OC)cc1 [Compound of Example 10, methyl 4-((2-((3-(3-(hydroxymethyl)-2-methoxy-5-(trifluoromethyl)phenyl)ureido)methyl)phenoxy)methyl)benzoate]
156 nM	COc1ccc(OC(F)(F)F)cc1NC(=O)NCc1ccccc1OCc1ccc(C(=O)N(C)C)cc1 [Compound of Example 14, 4-((2-((3-(2-methoxy-5-(trifluoromethoxy)phenyl)ureido)methyl)phenoxy)methyl)-N,N-dimethylbenzamide]
96.4 nM	CNC(=O)c1ccc(COc2ccccc2CNC(=O)Nc2cc(OC(F)(F)F)ccc2OC)cc1 [Compound of Example 13, 4-((2-((3-(2-methoxy-5-(trifluoromethoxy)phenyl)ureido)methyl)phenoxy)methyl)-N-methylbenzamide]
78.7 nM	COc1ccc(S(F)(F)(F)(F)F)cc1NC(=O)NCc1ccccc1Oc1ccncc1 [Compound of Example 23, 1-(2-methoxy-5-(pentafluorosulfanyl)phenyl)-3-(2-(pyridin-4-yloxy)benzyl)urea hydrochloride]
67.4 nM	COc1ccc(C(F)(F)F)cc1NC(=O)NCc1ccccc1OCc1cccc(C(N)=O)c1 [Compound of Example 21, 3-((2-((3-(2-methoxy-5-(trifluoromethyl)phenyl)ureido)methyl)phenoxy)methyl)benzamide]
47 nM	COc1ccc(OC(F)(F)F)cc1NC(=O)NCc1ccccc1OCc1ccnc(C(N)=O)c1 [Compound of Example 5, 4-((2-((3-(2-methoxy-5-(trifluoromethoxy)phenyl)ureido)methyl)phenoxy)methyl)picolinamide]
38.3 nM	COc1ccc(OC(F)(F)F)cc1NC(=O)NCc1ccccc1Oc1ccc(C(=O)O)cc1 [Compound of Example 26]
28.5 nM	COc1c(CO)cc(C(F)(F)F)cc1NC(=O)NCc1ccccc1OCc1cccc(C(N)=O)c1 [Compound of Example 22]
26.1 nM	COc1c(CO)cc(S(F)(F)(F)(F)F)cc1NC(=O)NCc1ccccc1OCc1ccncc1 [Compound of Example 2]
21 nM	COc1ccc(OC(F)(F)F)cc1NC(=O)NCc1ccccc1Oc1ccc(C(N)=O)cc1 [Compound of Example 27]
13.5 nM	COc1c(CO)cc(C(F)(F)F)cc1NC(=O)NCc1ccccc1OCc1ccc(C(N)=O)cc1 [Compound of Example 20, 4-((2-((3-(3-(hydroxymethyl)-2-methoxy-5-(trifluoromethyl)phenyl)ureido)methyl)phenoxy)methyl)benzamide]
13.2 nM	NC(=O)c1ccc(Oc2ccccc2CNC(=O)Nc2ccc(CO)c(C(F)(F)F)c2)cc1 [Compound of Example 36, 4-(2-((3-(4-(hydroxymethyl)-5-(trifluoromethyl)phenyl)ureido)methyl)phenoxy)benzamide]
12.9 nM	NC(=O)c1ccc(Oc2ccccc2CNC(=O)Nc2cc(C(F)(F)F)ccc2OC2COC2)cc1 [Compound of Example 33, 4-(2-((3-(2-(oxetan-3-yloxy)-5-(trifluoromethyl)phenyl)ureido)methyl)phenoxy)benzamide]
11.7 nM	CN1CCN(Cc2cc(NC(=O)NCc3ccccc3Oc3ccc(C(N)=O)cc3)cc(C(F)(F)F)c2)CC1 [Compound of Example 37, 4-(2-((3-(3-((4-methylpiperazin-1-yl)methyl)-5-(trifluoromethyl)phenyl)ureido)methyl)phenoxy)benzamide]
11 nM	COc1ccc(C(F)(F)F)cc1NC(=O)NCc1ccccc1Oc1ccc(C(N)=O)cc1 [Compound of Example 31]
5.98 nM	COc1c(CO)cc(C(F)(F)F)cc1NC(=O)NCc1ccccc1Oc1ccc(C(N)=O)cc1 [Compound of Example 29]
